Entries after “also recorded” stand apart in the source; their conditions may differ.
Tests used:
[1] = test system: S. glaseri; experiment: Ascaroside function (Table 12), S. glaseri; assay type: in vivo
Experimental: (§1) Various ascarosides and ascaroside blends were administered to various nematodes described below (Table 12). […] A very strong result of affecting nematode behavior is designated in the table as “strong.”

[2] = test system: males; experiment: Bioassay of HPLC-purified peak; assay type: in vivo; details: purified peak with retention time of 9.7 minutes
Experimental: A Thermo Finnigan LCQ Deca XP Max was used with electrospray ionization in positive ion mode in the 50-1000 AMU range. The Thermo Separation spectra HPLC system consisted of a P4000 quaternary pump, an AS 3000 auto sampler, and a UV 6000 diode array detector. The solvents were water with (a) 0.1% formic acid and (b) 90% acetonitrile-10% water with 10 mM ammonium formate. The column temperature was maintained at 60° C. and a solvent flow of 1.0 ml/min. The reversed phase column (PLRP-S Polymeric reversed phase column, 250×4.6 mmid, Varian Inc.) was eluted with a solvent composition starting with 90:10 (a,b) for 2 minutes, followed by a gradient to 5:95 in 20 minutes and an additional 5 minutes at 5:95. Ultraviolet absorption was monitored at 190 and 400 nm. Solvent flow between the ultraviolet detector and mass spectroscopy electrospray interface split 9:1 with a low-volume micro needle P450 splitter valve (Upchurch Scientific, Oak Harbor, Wash.), making it possible to obtain spectra of eluted compounds and simultaneously collect 90% of the injected material for bioassay. […] This was confirmed to be ascr#1 using NMR analysis.

[3] = test system: C. elegans; experiment: Ascaroside function (Table 12), C. elegans; assay type: in vivo, Caenorhabditis elegans; parameters: key to Attract Females/Herm. / Promote Dauer Formation / Attract Males: A very strong result of affecting nematode behavior is designated in the table as “strong.”
Experimental: as §1

[4] = test system: several of the tested nematode species; experiment: Retention assay, across species; assay type: in vivo; details: 1 nM, 1 μM and 1 mM tested
Experimental: OP50 E. coli was grown on a standard 5 cm agar plate (made with standard Nematode Growth Medium). The bacterial lawn was 16 mm in diameter and was grown overnight at 20° C. before being used in trials. Two 4 mm spots (0.6 μL) were placed on opposite sides of the bacterial lawn (using a transparent template to guide spot placement), and several minutes elapsed for the liquid to settle in before placing nematodes down on the assay. Recording began immediately upon worm placement. 0.6 μL of the control was placed on one side of the lawn, and 0.6 μL of the experimental cue was placed on the other side of the lawn, changing the location of the cue throughout trials between left/right and top/bottom to avoid bias.
Nematodes were isolated by gender at the L4 stage the day before being used in trials as developed adults. Worms were evenly divided and placed at two points equidistant from the foci of the scoring region. Trials were recorded for 20 minutes, and frames were collected for analysis at 1 frame per second. Results were averaged from at least three different trials. For every nematode species in this study, a different total number of worms (using water in both scoring regions) was tested to determine the minimum number of worms necessary for consistent unbiased results over a 20 minute trial. The total number of worms used in the multiple species assays depended on that species' optimal parameters. 10 worms were used for P. redivivus males and females, 20 worms were used for C. elegans males and O. dolichuridae males, and 14 worms were used for S. glaseri males. The Automated Software was used to compare worm occupancy in each scoring region over time, and the Chemotaxis Index (Bargmann et al., Cell 74:515-27 (1993), which is hereby incorporated by reference in its entirety) was adapted to score preference or avoidance to each ascaroside.
A video camera attached to the microscope produced a digital video stream, which was then analyzed. The ratio of the time the average worm spent in each region of interest was calculated for every trial. For ease of implementation, all worms in a single experiment were assumed to be roughly the same size. Thus worm pixels were counted instead of whole worms, allowing fractions of a worm in the region of interest to be taken into account. It also eliminated the need for a shape-based worm identification algorithm, and allowed each frame to be analyzed independently. A band-pass filter was applied to each frame to eliminate the effect of uneven lighting and also accentuate the worms against the background. The worm was then identified after thresholding the filtered image. Throughout each experiment, the locations and sizes of the regions of interest were known. Through the filtering described above, it is known which pixels are occupied by worms and which ones are not. Thus, the ratio of worm-pixels to all pixels inside the region of interest can be calculated to produce the worm-occupancy ratio. This calculation was done for every frame, giving a plot output of worm-occupancy ratio vs. time for each region.

[5] = test system: Panagrellus redivivus; experiment: Ascaroside function (Table 12), Panagrellus redivivus; assay type: in vivo
Experimental: as §1

[6] = test system: AIA interneurons; experiment: Calcium imaging (G-CaMP), AIA; assay type: in vivo, C. elegans; details: 1 μM icas#3
Text: (§2) Transgenic lines that express the genetically encoded Ca^2+ sensor in ASK (kyEx2866) and AIA (kyEx2916) (Macosko et al., Nature 458:1171-75 (2009), which is hereby incorporated by reference in its entirety) were used for calcium imaging. Young adults or adult worms were inserted into an “Olfactory chip” microfluidic device (Chronis et al., Nat. Methods 4:727-31 (2007), which is hereby incorporated by reference in its entirety). Dilutions of icas#3 were done with S-basal buffer (with no cholesterol). As stock solutions of icas#3 contained small amounts of ethanol, equivalent amounts of ethanol were added to the S-basal control flow.
(§3) Imaging was conducted using an inverted Zeiss microscope equipped with an Andor camera. Exposure time for image acquisition was 300 milliseconds. Before imaging the ASK neuron, the worm was exposed to blue light for 3 minutes as ASK responds to the blue light itself. […] Movies were analyzed using custom-made Matlab scripts. The first peak of fluorescence immediately after exposure to buffer or icas#3 was chosen for calculating the average change in fluorescence upon exposure to either buffer or icas#3. The value for this maximum was then subtracted from the mean fluorescence during the 5 seconds before the delivery of icas#3/buffer (corresponding to the region between 5 to 10 seconds in FIG. 2D).

[7] = test system: C. elegans hermaphrodites; experiment: Quadrant chemotaxis assay; assay type: in vivo
Experimental: Chemotaxis to both non-indole and indole ascarosides was assessed on 10 cm four-quadrant petri plates (Wicks et al., Dev. Biol. 221:295-307 (2000), which is hereby incorporated by reference in its entirety). Each quadrant was separated from adjacent ones by plastic spacers (FIG. 1B). Pairs of opposite quadrants were filled with nematode growth medium (NGM) agar containing either indole ascarosides or non-indole ascarosides at different concentrations. Animals were washed gently in a S-basal buffer, placed in the center of a four-quadrant plate with ascarosides in alternating quadrants, and scored after 15 minutes and 30 minutes. A chemotaxis index was calculated as: (the number of animals on ascaroside quadrants minus the number of animals on buffer quadrants)/(total number of animals).
Chemotaxis to hbas#3 was assessed on 10 cm four-quadrant petri plates (Wicks et al., Dev. Biol. 221:295-307 (2000), which is hereby incorporated by reference in its entirety). Each quadrant was separated from adjacent ones by plastic spacers. Pairs of opposite quadrants were filled with nematode growth medium (NGM) agar containing different concentrations of hbas#3. Animals were washed gently in an S-basal buffer and placed in the center of a four-quadrant plate with ascarosides in alternating quadrants, and scored after 15 minutes and 30 minutes. A chemotaxis index was calculated as: (the number of animals on ascaroside quadrants minus the number of animals on buffer quadrants)/(total number of animals).

[8] = test system: ASK neurons; experiment: Calcium imaging (G-CaMP), ASK; assay type: in vivo, C. elegans; details: 1 pM to 1 μM
Text: as §2, §3

[9] = test system: C. elegans; experiment: Aggregation assay; assay type: in vivo
Experimental: Aggregation behavior of worms was measured using assays reported in de Bono & Bargmann, Cell 94:679-89 (1998), which is hereby incorporated by reference in its entirety. Aggregation assays were conducted on standard NGM plates. Plates containing indole ascarosides were made by adding the indole ascaroside stock solution to the NGM media before they were poured onto the plates. These plates were dried at room temperature for 2 to 3 days. Control plates were treated similarly, except that ethanol solutions instead of icas solutions were added to the plates, corresponding to the amount of ethanol introduced via the icas solutions. Final ethanol concentrations of the plates were below 0.1% for all conditions. After drying, both control plates and plates containing indole ascarosides were seeded with 150 μl of an overnight culture of E. coli OP50 using a micropipette, and were allowed to dry for 2 days at room temperature. For “low worm density” experiments, 20 worms were placed onto the lawn and left at 20° C. for 3 hours. For “high worm density” experiments, approximately 120 worms were placed onto the bacterial lawn and left at 20° C. for 3 hours. Aggregation behavior was quantified as the number of animals that were in touch with two or more animals at greater than 50% of their body length.

[10] = test system: C. elegans hermaphrodites and males; experiment: Spot attraction assay; assay type: in vivo
Experimental: The spot attraction assays were conducted according to a previously reported method (Pungaliya et al., PNAS 106:7708-13 (2009); Srinivasan et al., Nature 454:1115-18 (2008), which are hereby incorporated by reference in their entirety). For both C. elegans hermaphrodites and males, 50-60 worms were harvested daily at the fourth larval stage (L4) and stored segregatedly by sex at 20° C. overnight, to be used as young adults the following day. For the competition experiments, two conditions were used: 120 nM ascr#3 and 10 nM icas#3 (Condition 1), or 12 μM ascr#3 and 1 μM icas#3 (Condition 2) in water containing 10% ethanol. Aliquots were stored at −20° C. in 20 μL tubes. 10% ethanol in water was used as control.
Attraction assays with hbas#3 were conducted as previously reported (Srinivasan et al., Nature 454:1115-18 (2008); Pungaliya et al., Proc. Natl. Acad. Sci. U.S.A. 106:7708-13 (2009), which are hereby incorporated by reference in their entirety). For the attraction assays, 50-60 hermaphrodite worms were harvested daily at the early fourth larval stage (L4) and stored at 20° C. overnight to be used as young adults the following day. Hbas#3 was dissolved in water containing 10% ethanol. Aliquots were stored at −20° C. in 20 μL tubes. 10% ethanol in water was used as control.

[11] = test system: C. elegans hermaphrodites; experiment: Measurement of locomotory parameters (automated worm-tracking system); assay type: in vivo
Experimental: Reversal frequency and velocity were measured using an automated worm-tracking system (Pungaliya et al., PNAS 106:7708-13 (2009); Srinivasan et al., Nature 454:1115-18 (2008), which are hereby incorporated by reference in their entirety).

Compound: C[C@H](CCCCC(=O)O)O[C@@H]1O[C@@H](C)[C@H](O)C[C@H]1O [ascr#1]
- Attract Males [1]: ascr#1
- activity to males in the bioassay [2]: active
- Attract Males [3]: ascr#1
- Promote Dauer Formation [3]: ascr#1
- preference for areas conditioned by ascaroside [4]: preferred
- Attract Males [5]: ascr#1

Compound: C[C@H](CCCC/C=C/C(=O)O)O[C@@H]1O[C@@H](C)[C@H](OC(=O)c2c[nH]c3ccccc23)C[C@H]1O [icas#3]
- Attract Females/Herm. [3]: ([strong])
- Attract Males [3]: ([strong])
- G-CaMP fluorescence in AIA interneurons [6]: induces G-CaMP fluorescence signals; also recorded: significantly increased; also recorded: significant changes
- chemotaxis of hermaphrodites from all tested strains ([7]; 1 pM icas#3, after 15 minutes): attracted
- chemotaxis of hermaphrodites from all tested strains ([7]; 1 μM icas#3, after 30 minutes): attracted
- attraction of social wild-type (RC301, CB4856) and npr-1(ad609) hermaphrodites ([7]; in vivo): strongly attracted
- response of daf-22 hermaphrodites ([7]; in vivo): as strongly as N2 worms
- concentration resulting in strong attraction of hermaphrodites (as low as) ([7]; presence and absence of food): ≤ 1 pM
- Ca2+ transients in ASK neurons [8]: no detection
- aggregation of daf-22 hermaphrodites versus N2 ([9]; 1 pM icas#3, low worm density): less aggregation than N2 worms
- aggregation of CB4856 ([9]; 1 nM icas#3, low worm density): not significantly different from the control
- aggregation of npr-1(ad609) hermaphrodites ([9]; entire tested concentration range, without drop off, low worm density): increased aggregation
- active concentration window (hermaphrodite attraction and aggregation) ([9]; in vivo): fM-pM; also recorded: femtomolar to low picomolar
- concentration giving very strong increase in aggregation (as low as) ([9]; low worm density (20 worms per plate), solitary and social hermaphrodites): ≤ 10 fM
- aggregation of ASK-ablated hermaphrodites ([9]; low worm density, any of the tested concentrations): do not aggregate; also recorded: did not aggregate
- concentration of maximal aggregation, social strain CB4856 ([9]; low worm density, bell-shaped response curve): 1 pM
- aggregation of him-5 males ([9]; plates containing 100 fM or 100 pM of icas#3): significantly increased
- attraction after ablation of the RMG interneuron ([10]; N2 (wild-type) and ncs-1::gfp hermaphrodites): does not affect; also recorded: did not affect
- attraction after ablation of ASK sensory neurons ([10]; hermaphrodites): near complete loss of attraction
- attraction of both C. elegans sexes ([10]; high concentrations, 1 μmol, N2 hermaphrodites and him-5 males): attractive; also recorded: attracted
- attraction of AIA-deficient worms ([10]; in vivo): did not show any attraction
- attraction of daf-22 hermaphrodites ([10]; in vivo): attracted; also recorded: as strongly as N2 worms
- attraction of social wild-type (RC301, CB4856) and npr-1(ad609) hermaphrodites ([10]; in vivo): attracted; also recorded: strongly attracted
- attraction of hermaphrodites ([10]; low concentrations, N2 hermaphrodites): strongly attractive
- worm velocity ([11]; 1-10 pM icas#3): not significantly reduced
- mean stopped duration ([11]; aggregation-inducing concentrations, N2 hermaphrodites): strongly increase
- forward velocity of ASK-ablated hermaphrodites ([11]; in vivo): do not display reduced forward velocity
- reversal frequency of ASK-ablated hermaphrodites ([11]; in vivo): does not increase; also recorded: neither increased reversal frequency

— patent US9534008B2, “Small molecule compounds that control plant- and insect-pathogenic nematodes” (California Institute of Technology, priority 2011, dated 2017)
